“Also recorded” adds a separate entry of the source.
Tests used:
[1] = PET uptake of labelled compounds into the brain of anesthetized rhesus monkeys after intravenous administration; assay type: in vivo, rhesus monkey; settings: i.v.; for uptake value into the brain: rhesus monkey under anesthesia, whole brain (WB 9), FIG. 1
Description: ACN, ACM, CRN and ACC prepared in Examples 1, 3 and 5 in equal amounts were intravenously administered to rhesus monkeys under anesthesia, respectively, at intervals of two hours, and the uptake value of those labelled compounds into the brain (whole brain: WB 9) and into the temporal muscle (TEM 11) was traced with time by the use of PET. The uptake value was obtained by the following calculation: [formula]

[2] = PET uptake of ACM into the whole brain of a normal volunteer, rest and task condition; assay type: in vivo, human (normal volunteer); settings: i.v., FIG. 2
Procedure: ACM synthesized in Example 3 was intravenously administered to a normal volunteer, and the uptake value of ACM into the whole brain was measured by use of PET in both the rest condition (WR 9) and task condition (calculation task, memory task: WB9-TASK).

[3] = PET uptake of ACM into the whole brain, normal volunteers versus CFS patients; assay type: in vivo, human (normal volunteers; settings: i.v., normal n=5, CFS n=6 (FIG. 3: n=5)
Procedure: (§1) ACM synthesized in Example 1 was intravenously administered to normal volunteers (n=5) and CFS patients (n=6), and the ACM uptake values into the whole brain and visual cortex were measured with time by means of PET.

[4] = PET uptake of ACM into the visual cortex, normal volunteers versus CFS patients; assay type: in vivo, human (normal volunteers; settings: i.v.
Procedure: as §1

[5] = ACM uptake into erythrocytes and erythrocyte/blood plasma ratio (hematocrit tube and imaging plate), normal volunteers versus CFS patients; assay type: in vivo, human (normal volunteers
Procedure: (§2) Blood was sampled from the normal volunteers and the CFS patients and the ACM uptake values in the blood plasma and blood cells thereof was measured by the combined method of hematocrit tube and imaging plate.

[6] = ACM uptake value in blood plasma (hematocrit tube and imaging plate), normal volunteers versus CFS patients; assay type: in vivo, human (normal volunteers; settings: normal n=5, CFS n=6, FIG. 6
Procedure: as §2

## CC(=O)O[C@H](CC(=O)[O-])C[N+](C)(C)[11CH3] [ACC, acetyl-L-carnitine with the same label]
[1]
  uptake value into the brain: not taken up into the brain almost at all

## C[N+](C)(C)C[C@@H](CC(=O)[O-])OC([11CH3])=O [ACM, Acetyl-L-carnitine with the ^11 C-labelled secondary carbon atom of acetyl group]
[2]; calculation and memory task versus rest
  uptake into the whole brain in the task condition relative to rest: about twice
[2]; rest condition
  uptake into the whole brain with time: taken up with time even during rest condition
[3]
  increase with time in the ACM uptake value into the whole brain, CFS patients versus normal volunteers: significantly lower than that in the normal volunteers
[4]; FIG. 3 and FIG. 4
  difference between CFS patients and normal volunteers in ACM uptake, visual cortex versus whole brain: particularly observed in the visual cortex than in the whole brain
[4]; normal n=5, CFS n=6, FIG. 4
  increase with time in the ACM uptake value into the visual cortex, CFS patients versus normal volunteers: significantly lower than that in the normal volunteers
[5]; CFS patients n=2, FIG. 7
  ratio erythrocyte/blood plasma of ACM uptake value, increase with time, CFS patients: inhibited in the CFS patients
[5]; inferred from erythrocyte/blood plasma ratio and unchanged plasma uptake
  ACM uptake value into erythrocyte, CFS patients versus normal volunteers: significantly lower than that in the normal volunteers
[5]; normal subjects n=2, FIG. 7
  ratio erythrocyte/blood plasma of ACM uptake value, change with time, normal subjects: increased with time in the normal subjects
[6]
  ACM uptake value in blood plasma, course with time, normal volunteers and CFS patients: almost the same course; also recorded: no difference
[1]
  uptake value into the brain: excellent
[1]; rhesus monkey, up to 60 minutes after the administration
  change of brain uptake with time: almost linearly increased up to 60 minutes after the administration

## C[11C](=O)O[C@H](CC(=O)[O-])C[N+](C)(C)C [ACN, Acetyl-L-carnitine with ^11 C-labelled primary carbon atom of acetyl group]
[1]
  uptake value into the brain: taken up into the brain only slightly

## C[N+](C)([11CH3])C[C@H](O)CC(=O)[O-] [CRN, L-carnitine with the ^11 C-labelled N-methyl carbon atom of carnitine, reference compound]
[1]
  uptake value into the brain: not taken up into the brain almost at all

— patent publication US5837219A, “Labelled acyl-L-carnitine and diagnostic agent” (Japan Science and Technology Corporation, priority 1995, dated 1998)
